Laboratory results as given in patent US20030186370A1, “5ht3 receptors of nematodes, polynucleotide molecules encoding same, and antagonists thereof” (priority 2000, published 2003).
pEC50, pIC50: −log10 of the molar value. Like-named read-outs stand apart in the source and are kept apart here.

Legend:
[1] = test system: C. elegans; assay: Effects of 5-HT receptor class-selective agonists and antagonists on C. elegans pharyngeal pumping and locomotion on agar; assay type: in vivo
Description: For the experiments described below C. elegans of the Bristol N2 strain (Brenner, S. 1974. The genetics of Caenorhabditis elegans, Genetics, 77: 71-94) were cultured at room temperature on HMS174 E. coli bacteria (Campbell J. L. et al. 1978. Genetic recombination and complementation between bacteriophage T7 and cloned fragments of T77 DNA. Proc. Natl. Acad. Sci. USA. 75: 2276-2280) on NGM agar (Sulston, J. and Hodgkin, J. 1988, “Methods” in The nematode Caenorhabditis elegans. W. B. Wood pp 587-606. Cold Spring Harbor Laboratory Press, New York) unless otherwise described.
Studies were therefore conducted wherein selective 5-HT1, 5-HT2 and 5-HT3 agonists were applied at known concentrations to agar on which C. elegans was held in the absence of food and the effects on movement and pharyngeal pumping monitored over a period of 2-3 hours.
Studies were also conducted to investigate the ability of selective vertebrate 5-HT3 antagonists to inhibit the 5-HT-induced increase in pharyngeal pumping.

[2] = test system: Helicoverpa armigera; assay: Growth of neonate H. armigera on surface-contaminated artificial diet; assay type: in vivo; details: for Mean weight of larva (mg) at 7 days: 24 larvae; for activity at 100 µM / activity at 1000 µM: Helicoverpa armigera, 168 h, read-out: % of control weight
[3] = test system: snail 5-HT3-like ion channel; details: Green et al. 1996; read-out: IC50 on the snail 5-HT3-like ion channel / 5-HT gated conductance; cited from earlier work
[4] = test system: Myzus persicae; assay: Green Peach Aphid artificial diet sachet bioassay, growth and survival; assay type: in vivo; details: for Mean number of surviving aphids (out of 5) / Mean relative growth rate of survivors: after 5 days
Description: The effects of MDL 72222 on Green Peach Aphid (Myzus persicae) was also tested. The bioassay involved testing compounds at 3 different concentrations (1 mM, 100 μM, 10 μM) in an artificial diet. Compounds that were not water-soluble were forced into solution using a non-toxic surfactant. For each compound, each concentration was tested in 10 replicate assays. In each replicate, 5 aphids were allowed to feed on the test solution in a Parafilm® sachet for a period of 5 days. Survivorship and aphid growth rate were compared among the test concentrations and a control containing only the artificial diet with surfactant.

[5] = test system: C. elegans; assay: Dose-response of serotonin-stimulated pharyngeal pumping of C. elegans; assay type: in vivo; details: for pIC50: in the presence of 0.325 mM serotonin (FIG. 2), read-out: IC50, inhibition of serotonin-stimulated pharyngeal pumping
Description: FIG. 1 provides dose-response curves for serotonin action on pharyngeal pumping. […] Any minor differences between the curves of FIGS. 1a and 1b are accounted for by the differences in experimental detail and the fact that in the microscopical assay, the rate of pumping is counted over a period of 1-3 minutes, whilst in the plate-based assays the fluorescence intensity represents the accumulation of ingested material over 60 minutes.
At this concentration of 5-HT, the IC50 for MDL72222 is approximately 30 μM, i.e. 10×lower than the EC50 for 5-HT.

[6] = test system: C. elegans; assay: Chronic exposure protocol: nematode growth and survival on NGM agar containing the compound; assay type: in vivo; details: for mortality at 5 µM / mortality at 10 µM / mortality at 20 µM / mortality at 40 µM / mortality at 81 µM / mortality at 162 µM / mortality at 325 µM: Caenorhabditis elegans
Description: Because the pharyngeal pump is essential for nematode feeding and the maintenance of the nematode “hydrostatic skeleton” [Brownlee, D. J. A. et al. 1997, supra] and a previously established target organ for nematicides, an investigation was conducted to assess whether the 5-HT3-selective antagonists would function as nematicidal agents in a chronic exposure protocol.
C. elegans nematodes were cultured on the HMS/174 strain of E. coli [Campbell, J. L. et al. 1978. Genetic recombination and complementation between bacteriophage T7 and cloned fragments of T7 DNA. Proc. Natl. Acad. Sci. USA. 75: 2276-2280] on NGM agar [Sulston, J. and Hodgkin, J. 1988, supra] in the wells of six well tissue culture cluster, 2 ml agar per well. MDL72222 was incorporated into the agar at the specified concentrations using ≦65 μl of acetone as a carrier. A control well contained 65 μl of acetone only. Between five and 11 L1 stage C. elegans were transferred to each well and the wells were incubated at 22° C. for up to four weeks. All concentrations >10 μM MDL 72222 caused developmental delays. Concentrations of MDL 72222 down to 80 μM caused 40 % mortality within three days. […] The bacterial food therefore remained uneaten for prolonged periods.
Concentrations of MDL72222 down to 20 μM caused 90-100% mortality within 21 days and concentrations as low as 10 μM and 5 μM caused 50-100% mortality at 21 days. At the lowest concentrations of MDL72222, nematode death was delayed until after the bacterial food had been consumed. […] The experiment shown in Table 3 was repeated with essentially identical results.

[7] = Table 3 experiment, 0.325 mM antagonist plus 0.325 mM serotonin
[8] = Table 3 experiment, 0.325 mM, nothing else added
[9] = 0.1 mM by surface contamination of diet
[10] = 1.0 mM by surface contamination of diet
[11] = 72 h, read-out: % Mortality - 3 days
[12] = 504 h, read-out: % Mortality - 21 days
[13] = Table 2 experiment, 0.325 mM (each), nothing else added

## Cl.Clc1cccc(N2CCNCC2)c1 [m-CPP hydrochloride]
[1]; agonist 1 mM (each, if combined)
  Effect on locomotion: Locomotion inhibited
[1]; agonist 1 mM (each, if combined) in agar, absence of food, 2-3 hours
  Pumping rate (min-1) mean ± s.d.: 0 min⁻¹
[1]; agonist 6 mM (each, if combined)
  Effect on locomotion: Locomotion inhibited
[1]; agonist 6 mM (each, if combined) in agar, absence of food, 2-3 hours
  Pumping rate (min-1) mean ± s.d.: 0 min⁻¹

## Cc1nccn1CC1CCc2c(c3ccccc3n2C)C1=O (stereo not shown) [ondansetron]
[2]; artificial diet, surface contamination
  Effect on growth and development of neonate H. armigera: no discernible effect
[1]; [7]
  Effect on locomotion: Nematodes moved normally
  Pumping rate (min-1) mean ± s.d.: 32 ± 29 min⁻¹
[1]; [8]
  Effect on locomotion: Nematodes moved normally
  Pumping rate (min-1) mean ± s.d.: 0 ± 0 min⁻¹
[3]
  pIC50: 5.00
[4]; 1 mM, 100 μM, 10 μM in artificial diet, 5 days
  Effect on M. persicae: no discernible effect

## CN1[C@@H]2CC[C@H]1C[C@@H](OC(=O)c1cc(Cl)cc(Cl)c1)C2 [MDL 72222]
[5]; Caenorhabditis elegans
  pIC50: ~4.60
[5]
  pIC50: ~4.52
[2]; [9]
  Mean weight of larva (mg) at 7 days: 51 mg
[2]; [10]
  Mean weight of larva (mg) at 7 days: 54 mg
[2]; 0.1 mM by surface contamination of diet, 7 days
  activity at 100 µM: 70%
[2]; 1.0 mM by surface contamination of diet, 7 days
  activity at 1000 µM: 75%
[6]; 5 μM in agar
  Time to consumption of all bacteria: 7 days
[6]; 10 μM in agar
  Time to consumption of all bacteria: 8 days
[6]; 20 μM in agar
  Time to consumption of all bacteria: 9 days
[6]; 40 μM in agar
  Time to consumption of all bacteria: 10 days
[6]; 81 μM in agar
  Time to consumption of all bacteria: 16 days
[6]; 162 μM in agar
  Time to consumption of all bacteria: >28 days
[6]; 325 μM in agar
  Time to consumption of all bacteria: >28 days
[6]; [11]
  mortality at 5 µM: 0%
  mortality at 10 µM: 0%
  mortality at 20 µM: 0%
  mortality at 40 µM: 0%
  mortality at 81 µM: 42%
  mortality at 162 µM: 64%
  mortality at 325 µM: 55%
[6]; [12]
  mortality at 5 µM: 100%
  mortality at 10 µM: > 50%
  mortality at 20 µM: 100%
  mortality at 40 µM: > 90%
  mortality at 81 µM: > 90%
  mortality at 162 µM: > 90%
  mortality at 325 µM: 100%
[6]; L1 stage seeded, 22° C.
  Concentrations that caused developmental delays: > 10 µM
[1]; [7]
  Pumping rate (min-1) mean ± s.d.: 2 ± 2 min⁻¹
[1]; [8]
  Pumping rate (min-1) mean ± s.d.: 1 ± 1 min⁻¹
[4]; 0.01 mM in artificial diet
  Mean number of surviving aphids (out of 5): 4.6
  Mean relative growth rate of survivors: 0.0339
[4]; 0.1 mM in artificial diet
  Mean number of surviving aphids (out of 5): 3.4
  Mean relative growth rate of survivors: 0.0200
[4]; 1 mM in artificial diet
  Mean number of surviving aphids (out of 5): 0.9
  Mean relative growth rate of survivors: 0.0383

## Cc1[nH]c2ccc(O)cc2c1CCN.Cl [2-methyl-5-hydroxytryptamine hydrochloride]
[1]; agonist 3 mM
  Effect on locomotion: Locomotion normal,
[1]; agonist 3 mM in agar, absence of food, 2-3 hours
  Pumping rate (min-1) mean ± s.d.: 130 ± 27 min⁻¹

## NCCc1c[nH]c2ccc(O)cc12 [serotonin, 5-Hydroxytryptamine]
[5]; Caenorhabditis elegans, read-out: EC50 of 5-HT on pharyngeal pumping
  pEC50: ~3.49
[2]; [9]
  Mean weight of larva (mg) at 7 days: 85 mg
[2]; [10]
  Mean weight of larva (mg) at 7 days: 85 mg
[2]
  activity at 100 µM: 116%
  activity at 1000 µM: 116%
[1]; [13]
  Effect on locomotion: Nematodes moved normally
  Pumping rate (min-1) mean ± s.d.: 129 ± 6 min⁻¹
[1]; [8]
  Effect on locomotion: Nematodes moved normally
  Pumping rate (min-1) mean ± s.d.: 54 ± 45 min⁻¹
